Publication PMC12064818, “A general assay platform to study protein pharmacology using ligand-dependent structural dynamics” (Nature Communications, 2025)

Target: T1, FLuc-C-HiBiT (Photinus pyralis, UniProt P08659)
T1 construct: firefly luciferase with C-terminal HiBiT tag, E. coli expressed
Assay: biochemical
Conditions: enzyme activity, 10 uM ATP; read-out: IC50 or SDR50 (mM) / FLuc E

T1 sequence (P08659 whole entry, looked up): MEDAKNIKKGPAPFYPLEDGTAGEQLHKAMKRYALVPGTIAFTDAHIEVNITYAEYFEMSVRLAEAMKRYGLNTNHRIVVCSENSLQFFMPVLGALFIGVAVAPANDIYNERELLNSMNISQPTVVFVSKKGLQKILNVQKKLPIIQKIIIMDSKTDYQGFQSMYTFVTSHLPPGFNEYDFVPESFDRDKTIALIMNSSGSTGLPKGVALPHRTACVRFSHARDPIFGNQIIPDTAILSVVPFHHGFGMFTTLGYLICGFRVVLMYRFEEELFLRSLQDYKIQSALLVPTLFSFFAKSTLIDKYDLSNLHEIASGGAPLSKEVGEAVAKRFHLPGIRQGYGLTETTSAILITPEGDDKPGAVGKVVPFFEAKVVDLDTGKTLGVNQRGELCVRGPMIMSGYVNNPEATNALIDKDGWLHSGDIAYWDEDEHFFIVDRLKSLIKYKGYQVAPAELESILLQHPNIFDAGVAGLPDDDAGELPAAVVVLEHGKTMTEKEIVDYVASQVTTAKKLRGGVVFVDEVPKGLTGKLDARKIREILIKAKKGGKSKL

Point of comparison: `COc1ccc2cc(-c3nc4ccc(C(=O)O)cc4[nH]3)c(=O)oc2c1` [NCGC00138156-01], IC50 0.0157 µM. Against it:
- COc1ccc(NC(=O)Cn2c(SCc3ccc(C)cc3)nc3cccnc32)cc1OC [NCGC00123978-01] — 45-fold higher, 0.7 µM
- COc1cc(OC)c(NC(=O)Cn2c(SCc3ccccc3F)nc3cccnc32)cc1Cl [NCGC00124034-02] — higher, > 30 µM
- Cc1ccc(Nc2ncnc3c2nc2n3CCCC2)c(Br)c1 [NCGC00124653-01] — 320-fold higher, 4.95 µM
- CCc1cccc(NC(=O)c2cc(-c3ccccc3)n[nH]2)c1 [NCGC00125661-01] — 180-fold higher, 2.79 µM
- CC1CCCN(C(=O)c2cc3ccc4cccnc4c3[nH]2)C1 (centres unmarked) [NCGC00126906-01] — 35-fold higher, 0.556 µM
- O=C(c1cc2ccc3cccnc3c2[nH]1)N1CCCCC1 [NCGC00126930-01] — 100-fold higher, 1.57 µM
- CCc1ccc(NC(=O)c2cc3ccccn3n2)cc1 [NCGC00127901-01] — 110-fold higher, 1.76 µM
- COc1cccc(-n2nnc(-c3nc(-c4ccccc4F)no3)c2C)c1 [NCGC00128608-01] — 350-fold higher, 5.56 µM
- Cc1c(Cl)cccc1-n1nnc(-c2nc(-c3ccc4c(c3)OCO4)no2)c1C [NCGC00128638-01] — 710-fold higher, 11.1 µM
- CCc1cccc(-n2nnc(-c3nsc(NC(=O)c4cccs4)n3)c2C)c1 [NCGC00129048-01] — higher, > 30 µM
- Cc1cn2c(=O)cc(COC(=O)c3ccccc3F)nc2s1 [NCGC00129878-01] — 400-fold higher, 6.24 µM
- COc1ccccc1NC(=O)CN1C(=O)CC(c2ccc(C)c(C)c2)=Nc2ccccc21 [NCGC00130405-01] — 790-fold higher, 12.4 µM
- Cc1ccc(OCC(=O)Nc2cccc(C(=O)OCc3cc(=O)n4nc(C)sc4n3)c2)cc1 [NCGC00130504-01] — 450-fold higher, 7 µM
- Cc1cn2c(=O)cc(COC(=O)c3cccc(NC(=O)COc4ccccc4Cl)c3)nc2s1 [NCGC00130619-01] — 450-fold higher, 7 µM
- COc1cccc(CN2CCc3nc(Nc4ccc5c(c4)OCCO5)ncc3C2)c1 [NCGC00131180-01] — 710-fold higher, 11.1 µM
- Cc1ccc(NC(=O)c2ncoc2-c2ccco2)cc1Cl [NCGC00131543-01] — 400-fold higher, 6.24 µM
- COC(=O)C1CCN(c2csc3ccc(C)cc3c2=O)CC1 [NCGC00132290-01] — 500-fold higher, 7.85 µM
- CCN1CCN(c2csc3ccc(Cl)cc3c2=O)CC1 [NCGC00132328-01] — 790-fold higher, 12.4 µM
- CC1CCCCN1c1csc2ccc(F)cc2c1=O (centres unmarked) [NCGC00132384-01] — 560-fold higher, 8.81 µM
- CC1CCc2nc3ncn(Cc4ccc(Cl)cc4)c(=O)c3cc2C1 (centres unmarked) [NCGC00132725-01] — higher, > 30 µM
- Cc1ccccc1CCNC(=O)c1ccc2c(c1)nc1n2CCCCC1 [NCGC00133334-01] — 56-fold higher, 0.881 µM
- O=C(NCCc1ccccc1Cl)c1ccc2c(c1)nc1n2CCCCC1 [NCGC00133356-01] — 71-fold higher, 1.11 µM
- O=C(NCCc1ccccc1)c1ccc2c(c1)nc1n2CCOC1 [NCGC00133386-01] — 560-fold higher, 8.81 µM
- Cc1ccccc1CCNC(=O)c1ccc2c(c1)nc1n2CCOC1 [NCGC00133426-01] — 320-fold higher, 4.95 µM
- O=C(NCCc1ccccc1Cl)c1ccc2c(c1)nc1n2CCOC1 [NCGC00133432-01] — 450-fold higher, 7 µM
- CC(C)CCNC(=O)c1ccc2c(c1)nc1n2CCCCC1 [NCGC00133608-01] — 630-fold higher, 9.89 µM
- CCN(CC)[S+](=O)([O-])c1ccc2nc(NC(=O)c3cccnc3)sc2c1 [NCGC00134045-01] — 790-fold higher, 12.4 µM
- Cc1ccc(C)c(N2CCN(C(=O)C3CCN(c4nc(-c5ccc(C(C)C)cc5)no4)CC3)CC2)c1 [NCGC00134060-01] — 710-fold higher, 11.1 µM
- Cc1ccc(NC(=O)C2CCN(c3nc(-c4ccc(C(C)C)cc4)no3)CC2)c(Cl)c1 [NCGC00134062-01] — 890-fold higher, 14 µM
- Cc1ccc2nc(-c3ccc(NC(=O)c4ccc([S+](C)(=O)[O-])cc4)cc3)sc2c1 [NCGC00134160-01] — higher, > 30 µM
- CCSc1ccccc1C(=O)Nc1ccc(-c2nc3ccccc3s2)c(O)c1 [NCGC00134162-01] — higher, > 30 µM
- CC[S+](=O)([O-])c1ccccc1C(=O)Nc1ccc(-c2nc3ccccc3s2)cc1 [NCGC00134164-01] — higher, > 30 µM
- CC[S+](=O)([O-])c1cccc(C(=O)Nc2ccc(-c3nc4ccccc4s3)c(O)c2)c1 [NCGC00134166-03] — 280-fold higher, 4.42 µM
- O=C(Nc1nc2c(F)cc(F)cc2s1)c1ccc2c(c1)OCCO2 [NCGC00134168-01] — 110-fold higher, 1.76 µM
- O=c1oc2c(CN3CCCC3)c(O)ccc2cc1-c1ccccc1 [NCGC00134332-01] — higher, > 30 µM
- Cc1ccc(C)c(N2CCN(C(=O)c3ccc(NC(=O)c4nsc5ccccc45)cc3)CC2)c1 [NCGC00134456-01] — 630-fold higher, 9.89 µM
- COc1ccc(-c2cn3nc(SCC(=O)Nc4cc(C)cc(C)c4)ccc3n2)cc1 [NCGC00134460-01] — 350-fold higher, 5.56 µM
- COc1ccc(-c2cn3nc(SCC(=O)Nc4ccccc4F)ccc3n2)cc1 [NCGC00134464-01] — 100-fold higher, 1.57 µM
- CCCCN(C)[S+](=O)([O-])c1ccc(C(=O)Nc2ccc(-c3nc4ccc(C)cc4s3)cc2)cc1 [NCGC00134689-02] — higher, > 30 µM
- Cc1ccc(C(=O)Nc2ccc(-c3nc4ccccc4s3)c(O)c2)c(C)c1 [NCGC00134691-01] — higher, > 30 µM
- COc1cccc(C(=O)Nc2ccc(-c3nc4ccc(C)cc4s3)cc2)c1OC [NCGC00134693-01] — higher, > 30 µM
- CSc1ccc(C(=O)Nc2ccc(-c3nc4ccccc4s3)c(O)c2)cc1 [NCGC00134695-01] — higher, > 30 µM
- CCSc1ccc(C(=O)Nc2ccc(-c3nc4ccc(C)cc4s3)cc2)cc1 [NCGC00134697-01] — higher, > 30 µM
- Cc1ccccc1Cn1cccc(C(=O)Nc2nc3ccccc3s2)c1=O [NCGC00134725-01] — 56-fold higher, 0.881 µM
- CC(C)Oc1ccc(C(=O)Nc2nnc3n2CCS3)cc1 [NCGC00134921-01] — 1100-fold higher, 17.6 µM
- O=C(COc1ccc(Cl)cc1)Nc1ccc(O)c(-c2nc3ccccc3s2)c1 [NCGC00135616-01] — higher, > 30 µM
- COc1ccc(C(=O)Nc2ccccc2-c2nc3ccccc3s2)c(OC)c1 [NCGC00135640-01] — higher, > 30 µM
- O=C(Nc1ccccc1-c1nc2ccccc2s1)c1cc(Cl)cc(Cl)c1 [NCGC00135642-01] — higher, > 30 µM
- COc1ccc(-c2nc(C)c(CCNC(=O)c3cccs3)s2)cc1 [NCGC00135787-01] — 710-fold higher, 11.1 µM
- Cc1ccc(-c2nc(C)c(CCNC(=O)c3cccs3)s2)cc1 [NCGC00135815-01] — 1100-fold higher, 17.6 µM
- COc1ccc(-c2nc(C)c(CCNC(=O)c3c(F)cccc3F)s2)cc1 [NCGC00135823-01] — higher, > 30 µM
- O=C(CSc1nccn1Cc1ccco1)Nc1ccc(OC(F)(F)F)cc1 [NCGC00136029-01] — 790-fold higher, 12.4 µM
- O=C(CSc1nnc2[nH]c(=O)cc(-c3ccccc3)n12)Nc1ccc(OC(F)(F)F)cc1 [NCGC00136515-01] — 450-fold higher, 7 µM
- CCOc1ccc2nc(N(Cc3cccnc3)C(=O)c3cccs3)sc2c1 [NCGC00136637-01] — higher, > 30 µM
- CC(=O)c1ccc(NC(=O)CSc2nnc(NC(=O)Nc3ccccc3)s2)cc1 [NCGC00136900-01] — 56-fold higher, 0.881 µM
- CCOc1ccc2nc(N3CCN(C(=O)c4ccco4)CC3)sc2c1 [NCGC00137033-01] — 790-fold higher, 12.4 µM
- CCCC(=O)N1CCN(c2nc3ccc(F)cc3s2)CC1 [NCGC00137065-01] — 710-fold higher, 11.1 µM
- Cc1c(CCNC(=O)c2ccc(Br)o2)sc2nc(-c3ccc(Cl)cc3)nn12 [NCGC00137117-01] — 790-fold higher, 12.4 µM
- O=C(Nc1ccc2c(c1)OCCO2)c1cccn(Cc2ccccc2)c1=O [NCGC00137349-01] — 710-fold higher, 11.1 µM
- Cc1cccn2c(=O)c(C(=O)NCCc3ccccc3)cnc12 [NCGC00137532-01] — 450-fold higher, 7 µM
- CN(C)c1cccc(C(=O)Nc2ccc(-c3nc4ccccc4s3)cc2)c1 [NCGC00137782-01] — 560-fold higher, 8.81 µM
- COc1cccc(CC(=O)Nc2ccc(-c3nc4ccccc4s3)cc2)c1 [NCGC00137800-01] — 560-fold higher, 8.81 µM
- COc1cccc(C(=O)Nc2ccc(-c3nc4ccccc4s3)cc2Cl)c1 [NCGC00137802-01] — higher, > 30 µM
- COc1ccc(CC(=O)Nc2ccc(-c3nc4ccccc4s3)cc2Cl)cc1OC [NCGC00137804-01] — higher, > 30 µM
- COc1cccc(CC(=O)Nc2ccc(-c3nc4ccccc4s3)cc2Cl)c1 [NCGC00137806-01] — higher, > 30 µM
- COc1ccc(CC(=O)Nc2ccc(-c3nc4ccccc4s3)cc2Cl)cc1 [NCGC00137808-01] — higher, > 30 µM
- Cc1cccc(C(=O)Nc2ccc(-c3nc4ccccc4s3)cc2Cl)c1 [NCGC00137810-01] — higher, > 30 µM
- CCOc1cc(C(=O)Nc2ccc(-c3nc4ccccc4s3)cc2Cl)cc(OCC)c1OCC [NCGC00137812-01] — 790-fold higher, 12.4 µM
- COc1cc(OC)cc(C(=O)Nc2ccc(-c3nc4ccccc4s3)c(C)c2)c1 [NCGC00137814-01] — higher, > 30 µM
- COc1ccc(CC(=O)Nc2ccc(-c3nc4ccccc4s3)c(C)c2)cc1OC [NCGC00137832-01] — higher, > 30 µM
- Cc1cc(NC(=O)c2ccccc2F)ccc1-c1nc2ccccc2s1 [NCGC00137834-01] — 160-fold higher, 2.48 µM
- COc1ccc(CC(=O)Nc2ccc(-c3nc4ccccc4s3)c(C)c2)cc1 [NCGC00137836-01] — higher, > 30 µM
- Cc1cccc(C(=O)Nc2ccc(-c3nc4ccccc4s3)c(C)c2)c1 [NCGC00137838-01] — 630-fold higher, 9.89 µM
- COc1ccccc1C(=O)Nc1ccc(-c2nc3ccccc3s2)c(C)c1 [NCGC00137840-01] — 630-fold higher, 9.89 µM
- CCOc1ccc(C(=O)Nc2ccc(-c3nc4ccccc4s3)c(C)c2)cc1OCC [NCGC00137842-01] — higher, > 30 µM
- CCOc1cccc2cc(-c3nc4ccc(C(=O)O)cc4[nH]3)c(=O)oc12 [NCGC00138160-01] — 10-fold higher, 0.157 µM
- Cc1cccc(-n2ncc3c(N4CCCC(C)C4)ncnc32)c1 (centres unmarked) [NCGC00138848-01] — 45-fold higher, 0.7 µM
- Cc1ccc(Cl)cc1-n1ncc2c(N3CCC(C)CC3)ncnc21 [NCGC00138926-01] — higher, > 30 µM
- Cc1ccc(Cl)cc1-n1ncc2c(N3CCC(C(N)=O)CC3)ncnc21 [NCGC00138952-01] — higher, > 30 µM
- Fc1ccc(-n2ncc3c(N4CCCCCC4)ncnc32)cc1 [NCGC00138953-01] — 79-fold higher, 1.24 µM
- Cc1ccc(-n2ncc3c(NC4CCCC4)ncnc32)cc1 [NCGC00138985-01] — 40-fold higher, 0.624 µM
- CCN(c1ncnc2c1cnn2-c1ccc(C)cc1)C1CCCCC1 [NCGC00138994-01] — 56-fold higher, 0.881 µM
- Cc1ccc(-n2ncc3c(N4CCN(C)CC4)ncnc32)cc1 [NCGC00139016-01] — 350-fold higher, 5.56 µM
- Cc1ccc(-n2ncc3c(N4CCCCCC4)ncnc32)cc1 [NCGC00139018-01] — 13-fold higher, 0.197 µM
- Cc1ccc(-n2ncc3c(N4CCC(Cc5ccccc5)CC4)ncnc32)cc1 [NCGC00139020-01] — higher, > 30 µM
